Data published in patent US4132738A, “Preparation of 15-deoxy-16-hydroxyprostaglandins” (Miles Laboratories, Inc., priority 1978, dated 1979).

Columns and labels:
[1] = test system: guinea pig trachea; assay: Effects on the guinea pig trachea in vitro; assay type: cell-based; details: comparison in words
Procedure: A male guinea pig weighing 200-500 g was killed by a blow on the head. A 20 mm length of the trachea was dissected from the animal, transferred to a petri dish containing Krebs' solution (aerated with 95% O2 and 5% CO2 at 37° C.), and cut longitudinally opposite the tracheal muscle. The tissue was then cut transversely three quarters of the distance across, a second cut in the opposite direction (again three quarters of the distance across the tissue) was made and the procedure was continued for the whole tissue. The ends of the trachea were pulled to form a zig-zig shaped strip. The tracheal strip used in the experiment was approximately 30 mm when extended under 0.25-0.5 g load in the tissue bath. Cotton thread was tied to one end of the tissue, and linen thread to the other. It was attached via the linen thread to a glass hook in a 5 ml isolated tissue bath containing Krebs' solution (37° C., aerated with a mixture of 95% O2 and 5% CO2). The opposite end was attached via cotton to an isotonic Harvard transducer (Model 386 Heart/Smooth Muscle Transducer, Harvard Apparatus). The load on the transducer lever was small, usually 0.3 g, with a range of 0.25-0.5 g, and the magnification high, 80 fold using an appropriate twin-channel pen recorder. A minimum of thirty minutes was allowed before applying a test compound to the tissue. Test compounds were then applied (in volumes of 0.5 ml) at thirty minute intervals, being in contact with the tissue for five minutes followed by an overflow washout time of twenty seconds.
Prostaglandin E1, at a bath concentration of 0.1 mcg/ml, was then tested repeatedly on two such strips, obtained from two different animals, until two responses (the values of which are recorded) differing by no more than 25% occur. A test compound was then added to the same two strips at bath concentrations of 0.01, 0.1, 1.0, and 10.0 mcg/ml and the effects of the compound were recorded. After the test compound had been evaluated at the highest concentration, PGE1 was retested at 0.1 mcg/ml (and the value of the response recorded) to insure that the viability of the strips was retained during the experiment. The mean of the effects of the test compound on the two strips was then calculated for each concentration, and, biased on the resulting values, an activity value was assigned as follows: […]

[2] = test system: blood pressure in the hypertensive rat; assay: Effects on systolic blood pressure in the hypertensive rat; assay type: in vivo; design: key: 0: Not significant at any time interval; 1: Significant at one time interval; 2: Significant at two time intervals; details: 1 mg/kg intraperitoneal; 2, 4, 6 and 9 hours
Procedure: The acute anithypertensive activity of test compounds was determined in rats made hypertensive by the procedure of Grollman (Proc. Soc. Exper Biol. Med., 57: 102 [1944]). Female rats weighing between 60 and 100 g were anesthetized with ether, the right kidney approached through a flank retroperitoneal incision, decapsulated and tied with a figure-of-eight-ligature. The animals were left to recover and two weeks later were again anesthetized and the contralateral kidney removed. Four weeks after the second operation the rats were subjected to indirect blood pressure measurements and those showing systolic pressure values greater than 160 mmHg were selected for drug testing.
Blood pressure was measured in the tail with an inflatable occluding cuff placed at the base of the extremity and a pulse detector located distally. The cuff was inflated to approximately 300 mmHg and was slowly deflated until pulsations appeared, indicating the level of systolic pressure; diastolic pressure was not recorded by this procedure. All measurements were carried out in unanesthetized, unsedated animals maintained in a warm environment during the recording procedure and for at least 6 hours before. In all cases, three pressure readings were obtained in succession and mean values were calculated thereof.
Experiments were carried out in groups of five hypertensive rats in which systolic pressure was determined immediately before and 2, 4, 6 and 9 hours after intraperiotoneal administration of the test compound at a dose of 1 mg/kg. Drugs were diluted from stock solutions with phosphate buffer (Lee et. al., Prostaglandins, 29 [1973]), so as to inject this quantity in a volume of 1 ml/kg. Changes from control blood pressure values were calculated for each interval both in mmHg and in percent, and evaluated for significance by means of Wilcoxon's signed rank test (Wilcoxon, R. and Wilcox, R. A., "Some Rapid Approximate Statistical Procedures," Lederle Laboratories, Pearl River [1964]).

[3] = test system: gastric secretion in the rat; assay: Effects on gastric secretion in the rat; assay type: in vivo; details: comparison in words
Procedure: A procedure based on that described by Lipman, W. (J. Pharm. Pharmacol., 21: 335 [1968]) was used to assess the influence of test compounds on gastric secretion. Rats of one sex weighing 150 to 200 g were randomly divided into groups of six animals each and fasted for 48 hours previous to the experiments, water being available ad libitum. The animals were anesthetized with ether, the abdomen opened through a midline incision, and the pylorus ligated. Test compounds were diluted from stock solution so as to administer a dose of 1.5 mg/kg in a volume equivalent to 1 ml/kg. Subcutaneous injections were applied immediately after surgery and again 2 hours later, so that a total dose of 3.0 mg/kg was administered. Dilutions were made with phosphate buffer (pH 7.38) as recommended by Lee et al. (Prostaglandins, 3: 29 [1973]) in order to insure adequate stability of drugs at the subcutaneous depot. Each compound was tested in one group of rats; an additional control group received only the vehicle.
Four hours after pyllric ligation the animals were killed with ether, the cardias ligated, and the stomachs removed. The volume of gastric secretion was measured and the contents centrifuged at 5000 rpm for 10 minutes. Total acid in the supernatant was titrated against a 0.1 N sodium hydroxide solution and the amount expressed in mEq.
Volume and total acid values of the treated group were compared with those of the controls […]. Antisecretory activity was scored according to the following scale: […]

[4] = test system: femoral blood flow in the anesthetized dog; assay: Effects on femoral blood flow in the anesthetized dog; assay type: in vivo; details: comparison in words
Procedure: The peripheral vasodilator or constrictor effects of test compounds were determined in mongrel dogs of either sex, weighing between 10 and 20 kg, anesthetized intravenously with 35 mg/kg of pentobarbital sodium. An external iliac artery was dissected immediately above the femoral arch for a length of approximately 5 cm, and a previously calibarated, non-cannulating electromagnetic-flowmeter sensor with a lumen between 2.5 and 3.5 mm was placed snugly around the vessel. Cannulas were placed in a branch of the artery arising distally to the location of the flowmeter sensor for intraarterial drug administrations, in the contralateral femoral artery for systemic blood pressure recording, and in the trachea for artificial respiration with room air. Femoral blood flow and systemic blood pressure were continuously recorded with an electromagnetic flowmeter and pressure transducer, respectively.
After an adequate control period, test compounds were injected intraarterially at one log-spaced doses ranging from 0.001 to 10 mcg, in a volume of 0.5 ml and at 5 to 10 minute intervals. […] The dose changing blood flow by 100 ml/min (ED100 ml/min) was calculated graphically and was used for scoring activity as follows: […]

Row | SMILES | Guinea pig trachea value, carbinol versus methyl ester analogue [1] | Blood Pressure Hypertensive Rat: activity value [2] | GAS value, carbinol versus methyl ester analogue [3] | Femoral blood flow value, methyl ester versus carbinol [4]
1 | CCCCC(O)C/C=C/[C@H]1[C@H](O)CC(=O)[C@@H]1CCCCCCC(=O)OC (stereo partly drawn) [TR 4705, Methyl 11α, 16RS-dihydroxy-9-oxoprost-13E-en-1-oate, reference compound] | the same | 0 | the same | slightly higher
2 | CCCCC(C)(O)C/C=C/[C@H]1[C@H](O)CC(=O)[C@@H]1CCCCCCC(=O)OC (stereo partly drawn) [TR 4704, Methyl 11α, 16RS-dihydroxy-16-methyl-9-oxoprost-13E-oate, reference compound] | the same | 0 | the same | significantly and undesirably higher
